Where two headings read alike, the source gives them in different places.
Legend:
Assay type in all cases: cell-based, human
NCI-H510A = test: OncoPanel cell proliferation assay, NCI-H510A
Protocol: (§1) Cells were grown in RPMI 1640, 10% FBS, 2 mM L-alanyl-L-glutamine, 1 mM Na pyruvate, or a special medium. Cells were seeded into 384-well plates and incubated in a humidified atmosphere of 5% CO2 at 37° C. Compounds were added the day following cell seeding. At the same time, a time zero untreated cell plate was generated. After a 3-day incubation period, cells were fixed and stained to allow fluorescence imaging of nuclei. Compounds (1 mM stock solutions) were serially diluted in half-log steps from the highest test concentration ([…]), and assayed over 10 concentrations with a maximum assay concentration of 0.1% DMSO. Automated fluorescence microscopy was carried out using a Molecular Devices ImageXpress Micro XL high-content imager, and images were collected with a 4× objective. 16-bit TIFF images were acquired and analyzed with MetaXpress 5.1.0.41 software.
(§2) Cell proliferation was measured by the fluorescence intensity of an incorporated nuclear dye. The output is referred to as the relative cell count, where the measured nuclear intensity is transformed to percent of control (POC) using the following formula: […]
(§3) Cellular response parameters were calculated using nonlinear regression to a sigmoidal single-site dose response model:
(§4) EC50 is the test compound concentration at the curve inflection point or half the effective response (parameter C of the fitted curve solution). GI50 is the concentration needed to reduce the observed growth by half (midway between the curve maximum and the time zero value). “Cell Count Activity Area” is an estimate of the integrated area above the curve (Barretina, et al. The Cancer Cell Line Encyclopedia enables predictive modelling of anticancer drug sensitivity. Nature 483: 603-607). […] In rare instances, values <0 or >10 may be observed. […] Curve-fitting, calculations, and report generation was performed using a custom data reduction engine and MathIQ based software (AIM).

U-138MG = test: OncoPanel cell proliferation assay, U-138MG
Protocol: as §1, §2, §3, §4

AGS = test: OncoPanel cell proliferation assay, AGS
Protocol: as §1, §2, §3, §4

NCIH446 = test: OncoPanel cell proliferation assay, NCIH446
Protocol: as §1, §2, §3, §4

Hs 729 = test: OncoPanel cell proliferation assay, Hs 729
Protocol: as §1, §2, §3, §4

ST486 = test: OncoPanel cell proliferation assay, ST486
Protocol: as §1, §2, §3, §4

[1] = Homo sapiens, read-out: Cell Count EC50
[2] = Homo sapiens, read-out: Cell Count GI50
[3] = Homo sapiens, read-out: Cell Count IC50

Compound: CO[C@H]1C[C@@H]2CC[C@@H](C)[C@@](O)(O2)C(=O)C(=O)N2CCCC[C@H]2C(=O)O[C@H]([C@H](C)C[C@H]2C[C@H]3C[C@@H]2C[C@@H]3O)CC(=O)[C@H](C)/C=C(\C)[C@@H](O)[C@@H](OC)C(=O)[C@H](C)C[C@H](C)/C=C/C=C/C=C/1C [Formula II, C37-[(1R,2S,4R,5S)-5-hyhroxybicyclo[2.2.1]heptane] rapamycin]
- Cell Count Activity Area (NCI-H510A): 2.57
- Relative cell count (%) Mean (NCI-H510A; 1.00E+00 microM): 91.4%
- Relative cell count (%) Mean (NCI-H510A; 1.00E-01 microM): 84.2%
- Relative cell count (%) Mean (NCI-H510A; 1.00E-02 microM): 99.6%
- Relative cell count (%) Mean (NCI-H510A; 1.00E-03 microM): 92.3%
- Relative cell count (%) Mean (NCI-H510A; 1.01E-04 microM): 102.2%
- Relative cell count (%) Mean (NCI-H510A; 3.16E-01 microM): 88.0%
- Relative cell count (%) Mean (NCI-H510A; 3.17E-02 microM): 90.4%
- Relative cell count (%) Mean (NCI-H510A; 3.17E-03 microM): 95.4%
- Relative cell count (%) Mean (NCI-H510A; 3.18E-04 microM): 101.6%
- Relative cell count (%) Mean (NCI-H510A; 3.18E-05 microM): 129.0%
- EC50 (NCI-H510A; Homo sapiens, NCl-H510A, Lung, Small cell lung cancer (SCLC), summary Table 5, read-out: EC50): 0.072 nM
- EC50 (NCI-H510A; [1]): 0.0717 nM
- GI50 (NCI-H510A; [2]): > 1000 nM
- IC50 (NCI-H510A; [3]): > 1000 nM
- EC50 (U-138MG; Homo sapiens, U138-MG, U-138 MG, CNS, Glioblastoma, summary Table 5, read-out: EC50): 1.4 nM
- EC50 (U-138MG; Homo sapiens, U138-MG, U-138MG, read-out: Cell Count EC50): 1.44 nM
- GI50 (U-138MG; Homo sapiens, U138-MG, U-138MG, read-out: Cell Count GI50): 23 nM
- IC50 (U-138MG; Homo sapiens, U138-MG, U-138MG, read-out: Cell Count IC50): > 1000 nM
- Cell Count Activity Area (U-138MG; U-138MG): 2.59
- Relative cell count (%) Mean (U-138MG; U-138MG, 1.00E+00 microM): 60.4%
- Relative cell count (%) Mean (U-138MG; U-138MG, 1.00E-01 microM): 67.9%
- Relative cell count (%) Mean (U-138MG; U-138MG, 1.00E-02 microM): 76.4%
- Relative cell count (%) Mean (U-138MG; U-138MG, 1.00E-03 microM): 74.8%
- Relative cell count (%) Mean (U-138MG; U-138MG, 1.01E-04 microM): 87.7%
- Relative cell count (%) Mean (U-138MG; U-138MG, 3.16E-01 microM): 65.0%
- Relative cell count (%) Mean (U-138MG; U-138MG, 3.17E-02 microM): 69.1%
- Relative cell count (%) Mean (U-138MG; U-138MG, 3.17E-03 microM): 73.8%
- Relative cell count (%) Mean (U-138MG; U-138MG, 3.18E-04 microM): 78.5%
- Relative cell count (%) Mean (U-138MG; U-138MG, 3.18E-05 microM): 87.8%
- Cell Count Activity Area (AGS): 5.29
- Relative cell count (%) Mean (AGS; 1.00E+00 microM): 41.7%
- Relative cell count (%) Mean (AGS; 1.00E-01 microM): 44.3%
- Relative cell count (%) Mean (AGS; 1.00E-02 microM): 41.0%
- Relative cell count (%) Mean (AGS; 1.00E-03 microM): 48.7%
- Relative cell count (%) Mean (AGS; 1.01E-04 microM): 87.1%
- Relative cell count (%) Mean (AGS; 3.16E-01 microM): 40.7%
- Relative cell count (%) Mean (AGS; 3.17E-02 microM): 42.8%
- Relative cell count (%) Mean (AGS; 3.17E-03 microM): 51.4%
- Relative cell count (%) Mean (AGS; 3.18E-04 microM): 63.8%
- Relative cell count (%) Mean (AGS; 3.18E-05 microM): 124.5%
- EC50 (AGS; [1]): 0.133 nM
- GI50 (AGS; [2]): 0.245 nM
- IC50 (AGS; [3]): 0.297 nM
- Cell Count Activity Area (NCIH446): 1.23
- Relative cell count (%) Mean (NCIH446; 1.00E+00 microM): 80.9%
- Relative cell count (%) Mean (NCIH446; 1.00E-01 microM): 83.6%
- Relative cell count (%) Mean (NCIH446; 1.00E-02 microM): 83.2%
- Relative cell count (%) Mean (NCIH446; 1.00E-03 microM): 93.7%
- Relative cell count (%) Mean (NCIH446; 1.01E-04 microM): 102.5%
- Relative cell count (%) Mean (NCIH446; 3.16E-01 microM): 74.9%
- Relative cell count (%) Mean (NCIH446; 3.17E-02 microM): 83.3%
- Relative cell count (%) Mean (NCIH446; 3.17E-03 microM): 85.8%
- Relative cell count (%) Mean (NCIH446; 3.18E-04 microM): 87.3%
- Relative cell count (%) Mean (NCIH446; 3.18E-05 microM): 94.2%
- EC50 (NCIH446; Homo sapiens, NCI-H446, read-out: Cell Count EC50): > 1000 nM
- GI50 (NCIH446; Homo sapiens, NCI-H446, read-out: Cell Count GI50): > 1000 nM
- IC50 (NCIH446; Homo sapiens, NCI-H446, read-out: Cell Count IC50): > 1000 nM
- Cell Count Activity Area (Hs 729): 0.91
- Relative cell count (%) Mean (Hs 729; 1.00E+00 microM): 73.3%
- Relative cell count (%) Mean (Hs 729; 1.00E-01 microM): 81.0%
- Relative cell count (%) Mean (Hs 729; 1.00E-02 microM): 91.1%
- Relative cell count (%) Mean (Hs 729; 1.00E-03 microM): 97.1%
- Relative cell count (%) Mean (Hs 729; 1.01E-04 microM): 105.0%
- Relative cell count (%) Mean (Hs 729; 3.16E-01 microM): 74.8%
- Relative cell count (%) Mean (Hs 729; 3.17E-02 microM): 79.3%
- Relative cell count (%) Mean (Hs 729; 3.17E-03 microM): 98.0%
- Relative cell count (%) Mean (Hs 729; 3.18E-04 microM): 93.3%
- Relative cell count (%) Mean (Hs 729; 3.18E-05 microM): 93.2%
- EC50 (Hs 729; [1]): > 1000 nM
- GI50 (Hs 729; [2]): 101 nM
- IC50 (Hs 729; [3]): > 1000 nM
- Cell Count Activity Area (ST486): 3.05
- Relative cell count (%) Mean (ST486; 1.00E+00 microM): 55.2%
- Relative cell count (%) Mean (ST486; 1.00E-01 microM): 56.2%
- Relative cell count (%) Mean (ST486; 1.00E-02 microM): 57.6%
- Relative cell count (%) Mean (ST486; 1.00E-03 microM): 72.7%
- Relative cell count (%) Mean (ST486; 1.01E-04 microM): 90.5%
- Relative cell count (%) Mean (ST486; 3.16E-01 microM): 49.9%
- Relative cell count (%) Mean (ST486; 3.17E-02 microM): 55.2%
- Relative cell count (%) Mean (ST486; 3.17E-03 microM): 58.2%
- Relative cell count (%) Mean (ST486; 3.18E-04 microM): 77.5%
- Relative cell count (%) Mean (ST486; 3.18E-05 microM): 92.2%
- EC50 (ST486; [1]): 0.581 nM
- GI50 (ST486; [2]): 1.17 nM
